Measured values: patent publication US9579316B2, “Salts of 2-amino-1-hydroxyethyl-8-hydroxyquinolin-2(1H)-one derivatives having both muscarinic receptor antagonist and β2 adrenergic receptor agonist activities” (priority 2013, dated 2017)

Experiments:
[1] = Differential scanning calorimetry (DSC) analysis; format: physicochemical
Method: DSC analyses were recorded either in a Mettler Toledo DSC822e or using a DSC-821 Mettler-Toledo, serial number 5117423874. In the case of a Mettler Toledo DSC822e equipment, samples of 1-3 mg were weighted (using a microscale MX5, Mettler) into 40 μL aluminium crucibles with a pinhole lid, and were heated, under nitrogen flow (50 mL/min), from 30 to 300° C. at a heating rate of 10° C./min. Data collection and evaluation was done with software STARe. In case of a DSC-821 Mettler-Toledo, serial number 5117423874 equipment, samples were weighed into an aluminium pan, an aluminium pinhole lid placed on top of the sample and compressed with a brass rod. Samples were equilibrated at 25° C. and heated at 10° C./min to 300° C. The instrument was calibrated using indium and zinc standards.

[2] = Thermogravimetric (TG) analysis; format: physicochemical; details: for TG analysis: temperature until which no significant changes are observed (then loss of mass / decomposition): heated at 10° C./min between 30 and 300° C., nitrogen flow
Method: Thermogravimetric analyses were recorded in a Mettler Toledo SDTA851e. Samples of 1-3 mg were weighted (using a microscale MX5, Mettler) 40 μL aluminium crucibles with a pinhole lid, and were heated at 10° C./min between 30 and 300° C., under nitrogen flow (50 mL/min). Data collection and evaluation was done with software STARe.

**Q.** With `CN(CCCn1c(=O)sc2cc(CNC[C@H](O)c3ccc(O)c4[nH]c(=O)ccc34)ccc21)[C@H]1CC[C@H](OC(=O)C(O)(c2cccs2)c2cccs2)CC1.O=C(O)/C=C/C(=O)O` [Example 2, trans-4-[{3-[6-({[(2R)-2-hydroxy-2-(8-hydroxy-2-oxo-1,2-dihydroquinolin-5-yl)ethyl]amino}methyl)-2-oxo-1,3-benzothiazole-3(2H)-yl]propyl}(methyl)amino]cyclohexyl hydroxy(di-2-thienyl)acetate fumarate] as the compound, how does the “stability (no conversion into other polymorphs, no decomposition below the DSC endotherm)” value [1] read?
**A.** high stability

**Q.** And the “DSC endothermic curve maximum (possible fusion/decomposition of the salt)” value ([1]; heating rate 10° C./min)?
**A.** 134 °C

**Q.** What about the “TG analysis: temperature until which no significant changes are observed (then loss of mass / decomposition)” value [2] of the same compound?
**A.** about 140 °C

**Q.** Which “stability (no conversion into other polymorphs, no decomposition below the DSC endotherm)” value [1] does the source give for `CN(CCCn1nnc2cc(CNC[C@H](O)c3ccc(O)c4[nH]c(=O)ccc34)ccc21)[C@H]1CC[C@H](OC(=O)C(O)(c2cccs2)c2cccs2)CC1.O=C1NS(=O)(=O)c2ccccc21` (relative stereo) [Example 1, trans-4-[{3-[5-({[(2R)-2-hydroxy-2-(8-hydroxy-2-oxo-1,2-dihydroquinolin-5-yl)ethyl]amino}methyl)-1H-1,2,3-benzotriazole-1-yl]propyl}(methyl)-amino]cyclohexyl hydroxy(di-2-thienyl)acetate saccharinate] here?
**A.** high stability

**Q.** What about the “DSC endothermic curve onset (possible decomposition of the salt)” value ([1]; heating rate 10° C./min) of the same compound?
**A.** about 170 °C

**Q.** What about the “TG analysis: temperature until which no significant changes are observed (then loss of mass / decomposition)” value [2] of the same compound?
**A.** 130-140 °C

**Q.** And the “hygroscopicity (no solvent/water release in TG)” value ([2]; no change prior to 140° C., in particular at 80-100° C.)?
**A.** lack of hygroscopicity
